Literature values as cited in patent US6132722A, “Recombinant antibody-enzyme fusion proteins” (Bristol-Myers Squibb Company, priority 1998, dated 2000).

Tested on: 3677 melanoma xenografts
Conditions: drug alone, Kerr et al. 1995

Q: With `COc1cccc2c1C(=O)c1c(O)c3c(c(O)c1C2=O)C[C@@](O)(C(=O)CO)C[C@@H]3O[C@H]1C[C@H](N)[C@H](O)[C@H](C)O1` [doxorubicin] as the compound, how does the “response of the 3677 tumor model to treatment” value read?
A: Its value is “resistant”.
